Here are results for 23 compounds from PubChem BioAssay AID192 (DTP/NCI, 2004).

The subject of this assay is BDF1 mice, B16 melanoma ip, median survival T/C. The assay can be described thus: NCI In Vivo Anticancer Drug Screen. Data for tumor model B16 Melanoma (intraperitoneal) in B6D2F1 (BDF1) mice. The settings on record: endpoint: median survival time, higher = longer survival. The essentials: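 In this screen, activity was judged from survival or tumor size in treated versus vehicle-treated tumor-bearing mice, reported as T/C.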

Setting [1] is: dose: 25.0 mg/kg/injection, schedule: Q04DX003 (ip), vehicle: saline with Tween-80.
The mark [2] stands for this setting: dose: 50.0 mg/kg/injection, schedule: Q01DX009 (ip), vehicle: saline with Tween-80.
Setting [3] is: dose: 100.0 mg/kg/injection, schedule: Q01DX009 (ip), vehicle: saline with Tween-80.
[4] abbreviates: dose: 200.0 mg/kg/injection, schedule: Q01DX009 (ip), vehicle: saline with Tween-80.
[5] abbreviates: dose: 100.0 mg/kg/injection, schedule: Q01DX009 (ip), vehicle: Klucel (hydroxypropylcellulose) (HPC).
Setting [6] is: dose: 200.0 mg/kg/injection, schedule: Q01DX009 (ip), vehicle: Klucel (hydroxypropylcellulose) (HPC).
Setting [7] is: dose: 400.0 mg/kg/injection, schedule: Q01DX009 (ip), vehicle: Klucel (hydroxypropylcellulose) (HPC).
Setting [8] is: dose: 200.0 mg/kg/injection, schedule: Q01DX009 (ip), vehicle: saline.
[9] abbreviates: dose: 400.0 mg/kg/injection, schedule: Q01DX009 (ip), vehicle: saline.
[10] abbreviates: dose: 6.25 mg/kg/injection, schedule: Q01DX009 (ip), vehicle: saline with Tween-80.
The mark [11] stands for this setting: dose: 12.5 mg/kg/injection, schedule: Q01DX009 (ip), vehicle: saline with Tween-80.
Where [12] appears, read: dose: 25.0 mg/kg/injection, schedule: Q01DX009 (ip), vehicle: saline with Tween-80.
Where [13] appears, read: dose: 50.0 mg/kg/injection, schedule: Q01DX009 (ip), vehicle: saline.
Where [14] appears, read: dose: 100.0 mg/kg/injection, schedule: Q01DX009 (ip), vehicle: saline.
[15] abbreviates: dose: 25.0 mg/kg/injection, schedule: Q01DX009 (ip), vehicle: saline.

Values joined by “and” are separate entries in the source; they are usually repeats but may differ in a detail not shown here. Equal values may be shown once. Toxic doses and inconclusive results are not listed.

With `NC(=O)Cn1cnc2c(=S)nc[nH]c21`, the T/C reads like this: (dose: 12.5 mg/kg/injection, schedule: Q04DX003 (ip), vehicle: saline with Tween-80) 95 % of control; under setting [1], 100 % of control.
For `O=C1CSC(=S)N1c1ccco1`, the T/C was 92 % of control under setting [2], 90 % of control under setting [3] and 87 % of control under setting [4].
As for `COc1cccc(NC(=O)Nc2ccccc2)c1`, the T/C was 110 % of control under setting [5], 101 % of control under setting [6] and 88 % of control under setting [7].
Regarding `CC(O)C(NC(=O)OC(C)(C)C)C(=O)O` (stereo unspecified), the T/C runs as follows: under setting [8], 105 % of control; under setting [9], 93 % of control.
For `Cc1cccc(C)c1NC(=O)C(C)C`, the T/C by setting is: under setting [3], 100 % of control; under setting [4], 102 % of control; (dose: 400.0 mg/kg/injection, schedule: Q01DX009 (ip), vehicle: saline with Tween-80) 95 % of control.
Turning to `COc1cccc(OC)c1C(c1c(OC)cccc1OC)c1c(OC)cccc1OC`, the T/C is 120 % of control under setting [1]; 108 % of control (dose: 50.0 mg/kg/injection, schedule: Q04DX003 (ip), vehicle: saline with Tween-80); 114 % of control (dose: 100.0 mg/kg/injection, schedule: Q04DX003 (ip), vehicle: saline with Tween-80).
Turning to `O=C(Nc1ccccc1F)Nc1cccc2ccccc12`, the T/C was 100 % of control under setting [5], 88 % of control under setting [6] and 94 % of control under setting [7].
Consider `Cc1cc(/C=C/c2cc[n+](C)c3ccccc23)c(O)c2ncccc12`, for which the T/C (dose: 3.0 mg/kg/injection, schedule: Q01DX009 (ip), vehicle: saline sonified) was 104 % of control; the T/C (dose: 6.0 mg/kg/injection, schedule: Q01DX009 (ip), vehicle: saline sonified) was 97 % of control; the T/C (dose: 12.0 mg/kg/injection, schedule: Q01DX009 (ip), vehicle: saline sonified) is 97 % of control; the T/C (dose: 24.0 mg/kg/injection, schedule: Q01DX009 (ip), vehicle: saline sonified) was 100 % of control; the T/C (dose: 48.0 mg/kg/injection, schedule: Q01DX009 (ip), vehicle: saline sonified) is 104 % of control.
Consider `Cc1ccc(NC(=O)CCl)cc1C`, for which the T/C is 102 % of control under setting [10]; 100 % of control under setting [11]; 95 % of control under setting [12]; 95 % of control under setting [3]; 95 % of control under setting [4].
As for `O=C(Nc1ccccc1Cl)OCC(Cl)(Cl)Cl`, the T/C (dose: 75.0 mg/kg/injection, schedule: Q04DX003 (ip), vehicle: Klucel (hydroxypropylcellulose) (HPC)) is 96 % of control; the T/C (dose: 150.0 mg/kg/injection, schedule: Q04DX003 (ip), vehicle: Klucel (hydroxypropylcellulose) (HPC)) was 91 % of control; the T/C (dose: 300.0 mg/kg/injection, schedule: Q04DX003 (ip), vehicle: Klucel (hydroxypropylcellulose) (HPC)) is 102 % of control.
As to `CCN(CC)C(=S)SSC(=S)N(CC)CC`, the T/C by setting is: (dose: 0.78 mg/kg/injection, schedule: Q01DX009 (ip), vehicle: Klucel (hydroxypropylcellulose) (HPC)) 110 % of control; (dose: 1.56 mg/kg/injection, schedule: Q01DX009 (ip), vehicle: Klucel (hydroxypropylcellulose) (HPC)) 86 % of control; (dose: 3.12 mg/kg/injection, schedule: Q01DX009 (ip), vehicle: Klucel (hydroxypropylcellulose) (HPC)) 97 % of control; (dose: 6.25 mg/kg/injection, schedule: Q01DX009 (ip), vehicle: Klucel (hydroxypropylcellulose) (HPC)) 105 % of control; (dose: 25.0 mg/kg/injection, schedule: Q01DX009 (ip), vehicle: Klucel (hydroxypropylcellulose) (HPC)) 92 % of control.
As to `O=C(OC1C(O)OC2COC(=O)c3cc(O)c(O)c(O)c3-c3c(cc(O)c(O)c3O)C(=O)OC2C1O)c1cc(O)c(O)c(O)c1` (stereo unspecified), the T/C (dose: 3.75 mg/kg/injection, schedule: Q01DX009 (ip), vehicle: saline) is 99 % of control and the T/C (dose: 7.5 mg/kg/injection, schedule: Q01DX009 (ip), vehicle: saline) is 112 % of control.
On to `CC(=O)O[C@@]1(C)[C@@H](C)C(=O)O[C@@H]2CCN3CC=C(COC(=O)[C@]1(C)O)[C@H]23`, for which the T/C is 119 % of control (dose: 12.5 mg/kg/injection, schedule: Q01DX009 (ip), vehicle: saline); 119 % of control under setting [13]; 97 % of control under setting [14].
`COc1cccc2c1C(=O)c1c(O)c3c(c(O)c1C2=O)C[C@@](O)(/C(C)=N\O)C[C@@H]3OC1CC(N)C(O)C(C)O1` (stereo partly specified): the T/C (dose: 3.13 mg/kg/injection, schedule: Q01DX009 (ip), vehicle: water) was 115 % of control; the T/C (dose: 6.25 mg/kg/injection, schedule: Q01DX001 (ip), vehicle: water) is 91 % of control; the T/C (dose: 12.5 mg/kg/injection, schedule: Q01DX001 (ip), vehicle: water) was 213 % of control; the T/C (dose: 12.5 mg/kg/injection, schedule: Q01DX009 (ip), vehicle: water) is 187 % of control; the T/C (dose: 25.0 mg/kg/injection, schedule: Q01DX001 (ip), vehicle: water) is 207 % of control; the T/C (dose: 50.0 mg/kg/injection, schedule: Q01DX001 (ip), vehicle: water) is 158 % of control.
As to `CC1NC(=O)NC1=O` (stereo unspecified), the T/C is 90 % of control under setting [5], 100 % of control under setting [6] and 102 % of control under setting [7].
For `O=C1NC(O)CCN1C1OC(CO)C(O)C1O` (stereo unspecified), the T/C was 111 % of control and 124 % of control under setting [15]; 110 % of control and 121 % of control under setting [13]; 102 % of control and 106 % of control under setting [14]; 96 % of control and 120 % of control under setting [8]; 106 % of control and 118 % of control under setting [9]; 105 % of control and 107 % of control (dose: 800.0 mg/kg/injection, schedule: Q01DX009 (ip), vehicle: saline).
For `CC(=O)NC1CC2c3ccccc3C1([N+](=O)[O-])c1ccccc12` (stereo unspecified), the T/C is, setting by setting: under setting [5], 100 % of control; under setting [6], 94 % of control; under setting [7], 91 % of control.
For `C[NH-].C[NH-].O=C(O)CC(=O)O.[Pt+2]`, the T/C (dose: 50.0 mg/kg/injection, schedule: Q04DX003 (ip), vehicle: saline) was 108 % of control; the T/C (dose: 100.0 mg/kg/injection, schedule: Q04DX003 (ip), vehicle: saline) was 162 % of control; the T/C (dose: 200.0 mg/kg/injection, schedule: Q04DX003 (ip), vehicle: saline) was 165 % of control.
In the case of `O=C(O)c1ccc(C(Cl)(Cl)Cl)cc1`, the T/C was 105 % of control under setting [12], 103 % of control under setting [2] and 98 % of control under setting [3].
Take `COc1cc(/C=C/C(N)=O)cc(OC)c1OC`: the T/C was 107 % of control under setting [15], 94 % of control under setting [14] and 102 % of control under setting [8].
As for `CCOC(=O)/C=C/c1c[nH]c(C(=O)OCC)c1`, the T/C is 102 % of control (dose: 50.0 mg/kg/injection, schedule: Q01DX009 (ip), vehicle: Klucel (hydroxypropylcellulose) (HPC)); 96 % of control under setting [5]; 99 % of control under setting [6]; 98 % of control under setting [7].
As for `CCN(C)c1cc2c3c(c1)CCCN3CCC2`, the T/C by setting is: (dose: 0.63 mg/kg/injection, schedule: Q01DX009 (ip), vehicle: saline) 111 % of control; (dose: 1.25 mg/kg/injection, schedule: Q01DX009 (ip), vehicle: saline) 95 % of control; (dose: 2.5 mg/kg/injection, schedule: Q01DX009 (ip), vehicle: saline) 101 % of control; (dose: 5.0 mg/kg/injection, schedule: Q01DX009 (ip), vehicle: saline) 93 % of control.
For the compound `CCCCCCCCCCCCNCCC#N`, the T/C by setting is: under setting [10], 100 % of control; under setting [11], 92 % of control; under setting [12], 91 % of control and 100 % of control; under setting [2], 89 % of control.
